Measurements published in the NIST ThermoML archive (doi:10.1021/je900902z).
± gives the expanded uncertainty stated by the source.

Details: DTA; for Triple point temperature: Crystal 2; for Normal melting temperature: Crystal

SMILES | Triple point temperature | Normal melting temperature
O=S(=O)([N-]S(=O)(=O)C(F)(F)C(F)(F)F)C(F)(F)C(F)(F)F.[Cs+] [cesium bis((perfluoroethyl)sulfonyl)amide] | 369 ± 2 K | 253 ± 2 °C
O=S(=O)([N-]S(=O)(=O)C(F)(F)C(F)(F)F)C(F)(F)C(F)(F)F.[Li+] [lithium bis(pentafluoroethylsulfonyl)amide] | 485 ± 2 K | 328 ± 2 °C
O=S(=O)([N-]S(=O)(=O)C(F)(F)C(F)(F)F)C(F)(F)C(F)(F)F.[K+] [potassium bis(pentafluoroethylsulfonyl) amide] | 427 ± 2 K | 273 ± 2 °C
O=S(=O)([N-]S(=O)(=O)C(F)(F)C(F)(F)F)C(F)(F)C(F)(F)F.[Rb+] [rubidium bis((perfluoroethyl)sulfonyl)amide] | 419 ± 2 K | 266 ± 2 °C
O=S(=O)([N-]S(=O)(=O)C(F)(F)C(F)(F)F)C(F)(F)C(F)(F)F.[Na+] [sodium bis(pentafluoroethylsulfonyl)amide] | 454 ± 2 K | 266 ± 2 °C
